Target: T1, human mPGES-1 (Homo sapiens, UniProt O14684)
T1 sequence (O14684 1-152): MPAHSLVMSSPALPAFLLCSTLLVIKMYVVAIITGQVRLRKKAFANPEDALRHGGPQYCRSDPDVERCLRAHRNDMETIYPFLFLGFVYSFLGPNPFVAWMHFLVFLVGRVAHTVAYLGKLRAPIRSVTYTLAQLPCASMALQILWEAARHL
Assay: Microsomal prostaglandin E synthase biochemical assay
Conditions: microsome preparation containing human mPGES-1; PGH2 10.8 μM, GSH 2.5 mM, pH 6.8; PGE2 by HTRF; average of at least n=2
Procedure: Compounds were tested as inhibitors of microsomal prostaglandin E synthase activity in microsomal prostaglandin E synthase assays and whole cell assays. These assays measure prostaglandin E2 (PGE2) synthesis which is taken as a measure of prostaglandin E synthase activity. Microsomal prostaglandin E synthase biochemical assays used microsomal prostaglandin E synthase-1 in microsomal preparations. The source of the microsomes can be for example interleukin-1β-stimulated human A549 cells (which express human mPGES-1) or Sf9 cells transfected with plasmids encoding human mPGES-1 cDNA. The whole blood assay [described by Patrignani, P. et al., Journal of Pharmacology and Experimental Therapeutics, 1994, vol. 271, pp 1705-1712] was used as the whole cell assay for testing the compounds. Whole blood provides a protein and cell rich milieu for the study of biochemical efficacy of anti-inflammatory compounds such as prostaglandin synthase inhibitors. To study the inhibitory activities of these compounds, human blood was stimulated with lipopolysaccharide (LPS) for typically 16 hours to induce mPGES-1 expression, after which the concentration of produced PGE2 was measured by competitive-immuno assay (homogeneous time-resolved fluorescence, HTRF) as read out for effectiveness against mPGES-1-dependent PGE2 production.
Microsomal Prostaglandin E Synthase Biochemical Assay
A solution of test compound was added to a diluted microsome preparation containing human mPGES-1 and pre-incubated for 15 minutes in potassium phosphate buffer pH 6.8 with cofactor glutathione (GSH). Corresponding solutions without test compound were used as positive controls, and corresponding solutions without test compound and without microsomes were used as negative controls. The enzymatic reaction was then started by addition of the substrate PGH2 in an organic solution (dry acetonitrile).
The typical reaction conditions of the enzymatic reaction were thus: Test compound: ranging from 60 μM to 0.002 μM, or zero in positive and negative controls; potassium phosphate buffer pH 6.8: 50 mM; GSH: 2.5 mM; mPGES-1-containing microsomes: 2 μg/mL (sample and positive controls) or 0 μg/mL (negative control); PGH2: 10.8 μM; Acetonitrile: 7.7% (v/v); DMSO: 0.6% (v/v). The reaction was stopped after one minute by adding an acidic solution (pH 1.9) of ferric chloride and citrate (final concentrations 7 mM and 47 mM respectively), by which the PGH2 was sequestered (the PGH2 is reduced to mainly 12-hydroxy heptadecatrineoic acid (12-HHT) which is not detected by the subsequent PGE2 detection step). The resulting solution was then pH neutralized by addition of potassium phosphate buffer, prior to diluting an aliquot of the resulting solution in a weak potassium phosphate buffer (50 mM, pH 6.8) containing 0.2% BSA (w/v). [Adapted from Jacobsson et al., Proc. Natl. Acad. Sci. USA, 1999, vol. 96, pp. 7220-7225]The PGE2 formed was quantified by use of a commercial HTRF based kit (catalogue #62PG2PEC or #62P2APEC from Cisbio International). 100% activity was defined as the PGE2 production in positive controls subtracted by the PGE2 production in the negative controls. IC50 values were then determined using standard procedures.
The potency is expressed as IC50 and the value indicated is an average of at least n=2.

Row | Compound | IC50
1 | NS(=O)(=O)c1cc(F)ccc1NS(=O)(=O)/C=C/c1cccc(Cl)c1 [Example 51, 2-[[(E)-2-(3-Chlorophenyl)ethenyl]sulfonylamino]-5-fluoro-benzenesulfonamide] | 4.9 µM
2 | CN(C)c1ccc(-c2cccc(S(=O)(=O)Nc3ccccc3S(N)(=O)=O)c2)cn1 [Example 170, 3-(6-Dimethylaminopyridin-3-yl)-N-(2-sulfamoylphenyl)benzenesulfonamide] | 0.29 µM
3 | NS(=O)(=O)c1ccccc1NS(=O)(=O)c1ccc(Oc2ncc(C(F)(F)F)cc2Cl)cc1 [Example 125, 2-[[4-[3-Chloro-5-(trifluoromethyl)pyridin-2-yl]oxyphenyl]sulfonylamino]benzenesulfonamide] | 7.2 µM
4 | NS(=O)(=O)c1ccccc1NS(=O)(=O)/C=C/c1ccccc1OC(F)F [Example 217, (E)-2-(2-(2-(difluoromethoxy)phenyl)vinylsulfonamido)benzenesulfonamide] | 0.11 µM
5 | CC(C)(O)C#Cc1ccc(CCS(=O)(=O)Nc2ccccc2S(N)(=O)=O)cc1 [Example 184, 2-(2-(4-(3-Hydroxy-3-methylbut-1-ynyl)phenyl)ethylsulfonamido)benzenesulfonamide] | 9.6 µM
6 | NS(=O)(=O)c1ccccc1NS(=O)(=O)/C=C/c1ccc(-c2ccc(C(F)(F)F)cc2)cc1 [Example 218, (E)-2-(2-(4′-(trifluoromethyl)biphenyl-4-yl)vinylsulfonamido)benzenesulfonamide] | 0.18 µM
7 | NS(=O)(=O)c1ccccc1NS(=O)(=O)c1ccc(C(F)(F)F)cc1 [Example 131, N-(2-Sulfamoylphenyl)-4-(trifluoromethyl)benzenesulfonamide] | 6.6 µM
8 | NS(=O)(=O)c1c(F)cccc1NS(=O)(=O)/C=C/c1ccc(-c2ccco2)cc1 [Example 36, 2-Fluoro-6-[[(E)-2-[4-(2-furyl)phenyl]ethenyl]sulfonylamino]benzenesulfonamide] | 0.057 µM
9 | NS(=O)(=O)c1ccccc1NS(=O)(=O)CCc1ccc(OC(F)F)cc1 [Example 19, 2-[2-[4-(Difluoromethoxy)phenyl]ethylsulfonylamino]benzenesulfonamide] | 1.4 µM
10 | COc1cccc(-c2cccc(S(=O)(=O)Nc3ccccc3S(N)(=O)=O)c2)c1 [Example 135, 3-(3-Methoxyphenyl)-N-(2-sulfamoylphenyl)benzenesulfonamide] | 8.3 µM
11 | NS(=O)(=O)c1c(F)cccc1NS(=O)(=O)/C=C/c1ccc(OC(F)F)cc1 [Example 43, 2-[[(E)-2-[4-(Difluoromethoxy)phenyl]ethenyl]sulfonylamino]-6-fluoro-benzenesulfonamide] | 0.11 µM
12 | NS(=O)(=O)c1cc(F)ccc1NS(=O)(=O)/C=C/c1ccc(-c2ccccc2)cc1 [Example 52, 5-Fluoro-2-[[(E)-2-(4-phenylphenyl)ethenyl]sulfonylamino]benzenesulfonamide] | 0.084 µM
13 | C/C(=C\c1ccc(Cl)cc1)S(=O)(=O)Nc1ccc(F)cc1S(N)(=O)=O [Example 12, 2-[[(E)-1-(4-Chlorophenyl)prop-1-en-2-yl]sulfonylamino]-5-fluoro-benzenesulfonamide] | 1 µM
14 | NS(=O)(=O)c1ccccc1NS(=O)(=O)c1cccc(-c2cc(Cl)ccc2Cl)c1 [Example 132, 2-[[3-(2,5-Dichlorophenyl)phenyl]sulfonylamino]benzenesulfonamide] | 4.5 µM
15 | NS(=O)(=O)c1ccccc1NS(=O)(=O)/C=C/c1ccc(-c2cc3ccccc3o2)cc1 [Example 3, 2-[[(E)-2-(4-Benzofuran-2-ylphenyl)ethenyl]sulfonylamino]benzenesulfonamide] | 0.14 µM
16 | NS(=O)(=O)c1ccccc1NS(=O)(=O)CCc1ccc(C#Cc2ccc(C(F)(F)F)cc2)nc1 [Example 240, 2-(2-(6-((4-(Trifluoromethyl)phenyl)ethynyl)pyridin-3-yl)ethylsulfonamido)benzenesulfonamide] | 0.031 µM

Row | Compound | IC50
17 | CC(C)(C)c1ccc(CCS(=O)(=O)Nc2ccccc2S(N)(=O)=O)cc1 [Example 70, 2-[2-(4-Tert-butylphenyl)ethylsulfonylamino]benzenesulfonamide] | 0.22 µM
18 | NS(=O)(=O)c1ccccc1NS(=O)(=O)c1cccc(-c2ccoc2)c1 [Example 119, 2-[[3-(3-Furyl)phenyl]sulfonylamino]benzenesulfonamide] | 4.5 µM
19 | Cc1ccc(NS(=O)(=O)/C=C/c2ccc(Br)cc2)c(S(N)(=O)=O)c1 [Example 190, (E)-2-(2-(4-Bromophenyl)vinylsulfonamido)-5-methylbenzenesulfonamide] | 0.68 µM
20 | Cc1ccc(NS(=O)(=O)/C=C/c2ccc(C(F)(F)F)cc2)c(S(N)(=O)=O)c1 [Example 97, 5-Methyl-2-[[(E)-2-[4-(trifluoromethyl)phenyl]ethenyl]sulfonylamino]-benzenesulfonamide] | 3.4 µM
21 | NS(=O)(=O)c1cc(Cl)c(F)cc1NS(=O)(=O)CCc1ccc(Cl)c(Cl)c1 [Example 233, 5-Chloro-2-(2-(3,4-dichlorophenyl)ethylsulfonamido)-4-fluorobenzenesulfonamide] | 0.15 µM
22 | COc1cc(Cl)ccc1CCS(=O)(=O)Nc1ccc(CO)cc1S(N)(=O)=O [Example 213, 2-[2-(4-Chloro-2-methoxy-phenyl)-ethanesulfonylamino]-5-hydroxymethyl-benzenesulfonamide] | 0.33 µM
23 | NS(=O)(=O)c1ccccc1NS(=O)(=O)c1cccc(-c2cccc3c2oc2ccccc23)c1 [Example 133, 3-Dibenzofuran-4-yl-N-(2-sulfamoylphenyl)benzenesulfonamide] | 2.2 µM
24 | COc1ccc(-c2cccc(S(=O)(=O)Nc3ccccc3S(N)(=O)=O)c2)cn1 [Example 138, 3-(6-Methoxypyridin-3-yl)-N-(2-sulfamoylphenyl)benzenesulfonamide] | 0.57 µM
25 | CCOc1ccccc1/C=C/S(=O)(=O)Nc1ccccc1S(N)(=O)=O [Example 222, 2-[2-(2-ethoxy-phenyl)-ethenesulfonylamino]-benzenesulfonamide] | 0.38 µM
26 | NS(=O)(=O)c1c(NS(=O)(=O)CCc2ccc(-c3ccco3)cc2)ccc2c1CCC2 [Example 234, 5-(2-(4-(Furan-2-yl)phenyl)ethylsulfonamido)-2,3-dihydro-1H-indene-4-sulfonamide] | 6.2 µM
27 | CC(C)(O)C#Cc1ccc(/C=C/S(=O)(=O)Nc2ccccc2S(N)(=O)=O)cc1 [Example 209, (E)-2-(2-(4-(3-Hydroxy-3-methylbut-1-ynyl)phenyl)vinylsulfonamido)benzenesulfonamide] | 0.22 µM
28 | COc1cc(NS(=O)(=O)c2cccc(Cl)c2Cl)c(S(N)(=O)=O)cc1F [Example 230, 2,3-Dichloro-N-(4-fluoro-5-methoxy-2-sulfamoylphenyl)benzenesulfonamide] | 6.1 µM
29 | NS(=O)(=O)c1ccccc1NS(=O)(=O)c1ccc(C2CCCCC2)cc1 [Example 128, 2-[(4-Cyclohexylphenyl)sulfonylamino]benzenesulfonamide] | 1.7 µM
30 | COc1cc(Cl)ccc1CCS(=O)(=O)Nc1cc(F)cc(F)c1S(N)(=O)=O [Example 198, 2-(2-(4-Chloro-2-methoxyphenyl)ethylsulfonamido)-4,6-difluorobenzenesulfonamide] | 0.29 µM
31 | NS(=O)(=O)c1cc(F)ccc1NS(=O)(=O)/C=C/c1ccc2ccccc2c1 [Example 99, 5-Fluoro-2-[[(E)-2-naphthalen-2-ylethenyl]sulfonylamino]benzenesulfonamide] | 0.29 µM
